Data on 2 compounds can be found in publication PMC10504751, “Chalcone/1,3,4-Oxadiazole/Benzimidazole hybrids as novel anti-proliferative agents inducing apoptosis and inhibiting EGFR & BRAFV^600E” (BMC Chemistry, 2023).

One data set relates to A549/ATCC. Nature of the data set: NCI one-dose SRB anti-proliferative screen. In kind it is cell-based. To be noted: Homo sapiens; A549/ATCC, Non-Small Cell Lung Cancer; NCI one dose; read-out: Cell growth inhibition %. In a few lines: (§1)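 One concentration (10 µM) was used per compound. Proliferation was assessed using the sulforhodamine B colorimetric method across sixty lines grouped into nine cancer subpanels.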

The subject of the next data set is CCRF-CEM. Nature of the data set: NCI one-dose SRB anti-proliferative screen. The following applies: Homo sapiens; CCRF-CEM, Leukemia; NCI one dose; read-out: Cell growth inhibition %. Type of data set: cell-based. In a few lines: as §1
A further data set deals with COLO 205. Kind of data set: NCI one-dose SRB anti-proliferative screen. In kind it is cell-based. To be noted: Homo sapiens; COLO 205, Colon cancer; NCI one dose; read-out: Cell growth inhibition %. The procedure, abridged: as §1
Another data set has as its system EKVX. Kind of data set: NCI one-dose SRB anti-proliferative screen. In kind it is cell-based. The following applies: Homo sapiens; EKVX, Non-Small Cell Lung Cancer; NCI one dose; read-out: Cell growth inhibition %. In a few lines:
as §1

For the next data set, the system named is HCC-2998. Kind of data set: NCI one-dose SRB anti-proliferative screen. To be noted: Homo sapiens; HCC-2998, Colon cancer; NCI one dose; read-out: Cell growth inhibition %. In kind it is cell-based. The procedure, abridged:
as §1

The next data set deals with HCT-15. Kind of data set: NCI one-dose SRB anti-proliferative screen. In kind it is cell-based. To be noted: Homo sapiens; HCT-15, Colon cancer; NCI one dose; read-out: Cell growth inhibition %. The procedure, abridged: as §1
In a further data set the test system is HOP-62. Nature of the data set: NCI one-dose SRB anti-proliferative screen. Type of data set: cell-based. The following applies: Homo sapiens; HOP-62, Non-Small Cell Lung Cancer; NCI one dose; read-out: Cell growth inhibition %. The procedure, abridged: as §1
The subject of another data set is M14. Nature of the data set: NCI one-dose SRB anti-proliferative screen. In kind it is cell-based. To be noted: Homo sapiens; M14, Melanoma; NCI one dose; read-out: Cell growth inhibition %. The procedure, abridged: as §1
The subject of a further data set is MALME-3M. Nature of the data set: NCI one-dose SRB anti-proliferative screen. To be noted: Homo sapiens; MALME-3M, Melanoma; NCI one dose; read-out: Cell growth inhibition %. In kind it is cell-based. In a few lines: as §1
The subject of another data set is NCI-H226. Nature of the data set: NCI one-dose SRB anti-proliferative screen. To be noted: Homo sapiens; NCI-H226, Non-Small Cell Lung Cancer; NCI one dose; read-out: Cell growth inhibition %. Type of data set: cell-based. The procedure, abridged:
as §1

In another data set the test system is NCI-H23. Nature of the data set: NCI one-dose SRB anti-proliferative screen. Type of data set: cell-based. The following applies: Homo sapiens; NCI-H23, Non-Small Cell Lung Cancer; NCI one dose; read-out: Cell growth inhibition %. The procedure, abridged:
as §1

A further data set concerns NCI-H322M. Nature of the data set: NCI one-dose SRB anti-proliferative screen. In kind it is cell-based. To be noted: Homo sapiens; NCI-H322M, Non-Small Cell Lung Cancer; NCI one dose; read-out: Cell growth inhibition %. In a few lines: as §1
Another data set has as its system NCI-H522. Nature of the data set: NCI one-dose SRB anti-proliferative screen. Type of data set: cell-based. To be noted: Homo sapiens; NCI-H522, Non-Small Cell Lung Cancer; NCI one dose; read-out: Cell growth inhibition %. In a few lines: as §1
Another data set has as its system OVCAR-4. Nature of the data set: NCI one-dose SRB anti-proliferative screen. To be noted: Homo sapiens; OVCAR-4, Ovarian Cancer; NCI one dose; read-out: Cell growth inhibition %. Type of data set: cell-based. In a few lines:
as §1

The next data set has as its system SF-295. Kind of data set: NCI one-dose SRB anti-proliferative screen. In kind it is cell-based. The following applies: Homo sapiens; SF-295, CNS Cancer; NCI one dose; read-out: Cell growth inhibition %. The procedure, abridged: as §1
For the next data set, the system named is SK-MEL-5. Nature of the data set: NCI one-dose SRB anti-proliferative screen. Type of data set: cell-based. To be noted: Homo sapiens; SK-MEL-5, Melanoma; NCI one dose; read-out: Cell growth inhibition %. The procedure, abridged:
as §1

Another data set has as its system SK-OV-3. Nature of the data set: NCI one-dose SRB anti-proliferative screen. Type of data set: cell-based. To be noted: Homo sapiens; SK-OV-3, Ovarian Cancer; NCI one dose; read-out: Cell growth inhibition %. In a few lines:
as §1

The next data set concerns SN12C. Nature of the data set: NCI one-dose SRB anti-proliferative screen. To be noted: Homo sapiens, SN 12C, Renal cancer, NCI one dose, read-out: Cell growth inhibition %. Type of data set: cell-based. In a few lines:
as §1

A further data set concerns SNB-19. Nature of the data set: NCI one-dose SRB anti-proliferative screen. In kind it is cell-based. To be noted: Homo sapiens; SNB-19, CNS Cancer; NCI one dose; read-out: Cell growth inhibition %. In a few lines:
as §1

For a further data set, the system named is SNB-75. Nature of the data set: NCI one-dose SRB anti-proliferative screen. Type of data set: cell-based. To be noted: Homo sapiens; SNB-75, CNS Cancer; NCI one dose; read-out: Cell growth inhibition %. In a few lines:
as §1

For the next data set, the system named is U251. Nature of the data set: NCI one-dose SRB anti-proliferative screen. The following applies: Homo sapiens, U-251; U251, CNS Cancer; NCI one dose; read-out: Cell growth inhibition %. In kind it is cell-based. In a few lines: as §1
The next data set concerns UACC-62. Kind of data set: NCI one-dose SRB anti-proliferative screen. In kind it is cell-based. The following applies: Homo sapiens; UACC-62, Melanoma; NCI one dose; read-out: Cell growth inhibition %. In a few lines:
as §1

A short description of data set [1]: MTT cell viability assay in normal cells. In kind it is cell-based. To be noted: human, MCF-10A normal mammary epithelial cells. The procedure, abridged: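 Normal human mammary epithelial MCF-10A cells exposed to compounds at 50 µM (0.1% DMSO) for 96 h at 37°C, four wells per compound. Viability by MTT (0.4 mg/mL, 3 h), formazan in DMSO read at 540 nm.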

In turn, `COc1ccc(-c2nc3cc(-c4nnc(SCC(=O)Nc5ccc(C(=O)/C=C/c6ccc(OC)c(OC)c6)cc5)o4)ccc3[nH]2)cc1` [Compound 7n, 2-{5-[2-(4-Methoxyphenyl)-1 H-benzo[d]imidazol-5-yl]-1,3,4-oxadiazol-2-ylthio}-N-{4-[(E)-3-(3,4-dimethoxyphenyl)acryloyl]phenyl}acetamide] had a melting point of 222 to 224 °C. Besides, in the data set with A549/ATCC, the inhibition at 10 µM stood at 3.19%. For the same compound, in the data set with CCRF-CEM, the inhibition at 10 µM worked out at 38.8%. In the data set with COLO 205, the inhibition at 10 µM worked out at 0%. The inhibition at 10 µM in the data set on EKVX was 4.36%. Also, in the data set with HCC-2998, the inhibition at 10 µM stood at 0%. For the same compound, the inhibition at 10 µM with HCT-15 worked out at 31.8%. Further, the inhibition at 10 µM in the data set with HOP-62 was 5.22%. In the data set with M14, the inhibition at 10 µM worked out at 10.6%. Also, the inhibition at 10 µM in the data set on MALME-3M worked out at 14.6%. For the same compound, the inhibition at 10 µM in the data set on NCI-H226 came to 3.76%. In the data set with NCI-H23, the inhibition at 10 µM stood at 19.9%. For the same compound, in the data set on NCI-H322M, the inhibition at 10 µM amounted to 5.07%. Moreover, in the data set on NCI-H522, the inhibition at 10 µM is 24.6%. Also, the inhibition at 10 µM in the data set on OVCAR-4 worked out at 13.2%. Further, the inhibition at 10 µM in the data set with SF-295 turned out to be 0%. The inhibition at 10 µM with SK-MEL-5 was found to be 16.2%. Besides, in the data set on SK-OV-3, the inhibition at 10 µM came to 0%. Besides, the inhibition at 10 µM in the data set on SN12C stood at 8.67%. In addition, the inhibition at 10 µM in the data set on SNB-19 came out at 13.2%. Also, the inhibition at 10 µM in the data set with SNB-75 stood at 22.1%. The inhibition at 10 µM with U251 worked out at 25.3%. Also, in the data set with UACC-62, the inhibition at 10 µM amounted to 15.8%. This compound gave a viability at 96 h, 50 µM in [1] of 92%.

Turning to `COc1ccc(-c2nc3cc(-c4nnc(SCC(=O)Nc5ccc(C(=O)/C=C/c6cc(OC)c(OC)c(OC)c6)cc5)o4)ccc3[nH]2)cc1` [Compound 7o, 2-{5-[2-(4-Methoxyphenyl)-1 H-benzo[d]imidazol-5-yl]-1,3,4-oxadiazol-2-ylthio}-N-{4-[(E)-3-(3,4,5-trimethoxyphenyl)acryloyl]phenyl}acetamide], the melting point lay in the range of 154 to 156 °C. Moreover, in the data set with A549/ATCC, the inhibition at 10 µM was 0%. Also, the inhibition at 10 µM in the data set with CCRF-CEM turned out to be 0%. For the same compound, in the data set with COLO 205, the inhibition at 10 µM was determined as 0%. The inhibition at 10 µM with EKVX came out at 0%. In addition, the inhibition at 10 µM in the data set with HCC-2998 was determined as 0%. The inhibition at 10 µM in the data set on HCT-15 was found to be 0%. The inhibition at 10 µM in the data set on HOP-62 turned out to be 0%. The inhibition at 10 µM in the data set with M14 came to 0%. Moreover, the inhibition at 10 µM with MALME-3M is 3.93%. Further, the inhibition at 10 µM in the data set on NCI-H226 was 2.19%. Moreover, the inhibition at 10 µM in the data set on NCI-H23 was found to be 0%. Also, the inhibition at 10 µM with NCI-H322M amounted to 0%. Also, in the data set on NCI-H522, the inhibition at 10 µM stood at 0%. Besides, in the data set on OVCAR-4, the inhibition at 10 µM was 0%. The inhibition at 10 µM with SF-295 came out at 0%. Moreover, the inhibition at 10 µM with SK-MEL-5 is 0.99%. Further, the inhibition at 10 µM with SK-OV-3 was determined as 0%. The inhibition at 10 µM in the data set on SN12C came out at 0%. Also, the inhibition at 10 µM in the data set with SNB-19 came out at 0%. Moreover, the inhibition at 10 µM with SNB-75 came out at 1.75%. In the data set with U251, the inhibition at 10 µM was 3.23%. Further, in the data set on UACC-62, the inhibition at 10 µM worked out at 5.12%. The viability at 96 h, 50 µM in [1] is 89%.

The term inhibition denotes the percentage by which the read-out fell short of the control. The term viability denotes the share of living cells, or the viability signal relative to a control. Low readings indicate more harm to the cells, high ones less harm to the cells. In general, melting point refers to the temperature of the solid-liquid transition.
